Legend:
[1] = system: Erysiphe graminis f.sp.tritici; assay: Control test of wheat powdery mildew disease (sprayed young wheat seedlings); format: in vivo; conditions: Blumeria graminis, 144 h, 125 ppm by mass spray, six days after inoculation
Description: [formula] […] Then, the drug liquid was sprayed onto young wheat seedlings cultivated in a nursery pot (variety “Chihoku”, one-to two-leaf stage), and then air-dried. Thereafter, conidiospores of fungi causing wheat powdery mildew disease (Erysiphe graminis f.sp.tritici) were sprinkled on the young wheat seedlings to inoculate them (treated area). As a control, the conidiospores of fungi causing wheat powdery mildew disease (Erysiphe graminis f.sp.tritici) were sprinkled on young wheat seedlings unsprayed with the drug liquid (untreated area). They were left still in a greenhouse at 20° C. Six days after inoculation, leaves of young wheat seedlings were visually observed, and the lesion area ratio was determined to calculate the control value in a similar manner to the previous test.

[2] = system: Venturia inaequalis; assay: Control test of apple scab disease (sprayed young apple seedlings); format: in vivo; conditions: 125 ppm by mass spray, 12 to 14 days after inoculation
Procedure: [formula] […] Then, the drug liquid was sprayed onto young apple seedlings cultivated in a nursery pot (variety “Orin”, three-to four-leaf stage), and then air-dried. Thereafter, conidiospores of fungi causing apple scab disease (Venturia inaequalis) were inoculated thereon (treated area). As a control, the conidiospores were inoculated in a similar manner to the above on young apple seedlings unsprayed with the drug liquid (untreated area). They were left still at 20° C. in a moist room with light and dark cycles repeated every 12 hours. 12 Days to 14 days after inoculation, leaves of young apple seedlings were visually observed, and the control value was calculated from the lesion area ratio in accordance with the equation used in the control test of cucumber gray mold.

[3] = system: Colletotrichum acutatum; assay: Fungicidal effect test against fungi causing apple anthracnose; conditions: 96 h, read-out: growth inhibition ratio
[4] = system: Botrytis cinerea; format: cell-based; conditions: 120 h, 25 ppm by volume, Vogel medium, 20° C., five days, dark, read-out: growth inhibition ratio
[5] = system: Botrytis cinerea; assay: Control test of cucumber gray mold (sprayed young cucumber seedlings); format: in vivo; conditions: 96 h, four days after inoculation; for pest or weed control at 25 ppm: 25 ppm by mass spray; for pest or weed control at 125 ppm: 125 ppm by mass spray
Procedure: Then, the drug liquid was sprayed onto young cucumber seedlings cultivated in a nursery pot (variety “Jihai”-based, cotyledon stage), and then air-dried. […] They were left still in a moist room at 20° C. Four days after inoculation, leaves of the young cucumber seedlings were visually observed, and the control value was calculated from the lesion area ratio in accordance with the following equation. [formula]

[6] = system: Glomerella cingulata; assay: Fungicidal effect test against fungi causing grape ripe rot disease; conditions: Colletotrichum gloeosporioides, 72 h, read-out: growth inhibition ratio

CC(=O)N(Cc1ccc(C)cc1C)NC(=O)c1cc(C)nnc1Oc1cccc(C2CC2)c1F [b-5, N′-acetyl-3-(3-cyclopropyl-2-fluorophenoxy)-N′-(2,4-dimethylbenzyl)-6-methylpyridazine-4-carbohydrazide]
≥ 75%: pest or weed control at 125 ppm [1] | pest or weed control at 125 ppm [2] | inhibition of growth at 25 ppm [3] | inhibition of growth at 25 ppm [4] | pest or weed control at 25 ppm [5] | pest or weed control at 125 ppm [5] | inhibition of growth at 25 ppm [6]

CC(=O)N(Cc1ccc(C)cc1C)NC(=O)c1cc(C)ncc1Oc1cccc(C2CC2)c1F [b-9, N′-acetyl-5-(3-cyclopropyl-2-fluorophenoxy)-N′-(2,4-dimethylbenzyl)-2-methylisonicotinohydrazide]
≥ 75%: pest or weed control at 125 ppm [1] | pest or weed control at 125 ppm [2] | inhibition of growth at 25 ppm [3] | inhibition of growth at 25 ppm [4] | pest or weed control at 25 ppm [5] | pest or weed control at 125 ppm [5] | inhibition of growth at 25 ppm [6]

Cc1ccc(CN(NC(=O)c2cc(C)nnc2Oc2cccc(C3CC3)c2F)C(=O)C(C)C)c(C)c1 [b-18]
≥ 75%: pest or weed control at 125 ppm [1] | pest or weed control at 125 ppm [2] | inhibition of growth at 25 ppm [3] | inhibition of growth at 25 ppm [4] | pest or weed control at 125 ppm [5] | inhibition of growth at 25 ppm [6]

Cc1ccc(CN(NC(=O)c2cc(C)nnc2Oc2cccc(C3CC3)c2F)S(C)(=O)=O)c(C)c1 [b-26, N′-(3-(3-cyclopropyl-2-fluorophenoxy)-6-methylpyridazine-4-carbonyl)-N-(2,4-dimethylbenzyl)methanesulfonohydrazide]
≥ 75%: pest or weed control at 125 ppm [2] | inhibition of growth at 25 ppm [3] | inhibition of growth at 25 ppm [4] | inhibition of growth at 25 ppm [6]

COC(=O)N(Cc1ccc(C)cc1C)NC(=O)c1cc(C)nnc1Oc1cccc(Cl)c1Br [b-35]
≥ 75%: pest or weed control at 125 ppm [2] | inhibition of growth at 25 ppm [4]

CC(=O)C(=O)N(Cc1ccc(C)cc1C)NC(=O)c1cc(C)nnc1Oc1cccc(C2CC2)c1F [b-58, 3-(3-Cyclopropyl-2-fluorophenoxy)-N′-(2,4-dimethylbenzyl)-6-methyl-N′-(2-oxopropanoyl)pyridazine-4-carbohydrazide]
≥ 75%: pest or weed control at 125 ppm [1] | inhibition of growth at 25 ppm [3] | inhibition of growth at 25 ppm [4] | pest or weed control at 125 ppm [5] | inhibition of growth at 25 ppm [6]

COC(=O)N(CCc1ccc(Cl)cc1Cl)NC(=O)c1cc(C)nnc1Oc1cccc(C2CC2)c1F [b-65]
≥ 75%: pest or weed control at 125 ppm [1] | pest or weed control at 125 ppm [2] | inhibition of growth at 25 ppm [3] | inhibition of growth at 25 ppm [6]

COC(=O)N(Cc1ccc2ccccc2c1)NC(=O)c1cc(C)nnc1Oc1cccc(C2CC2)c1F [b-71]
≥ 75%: pest or weed control at 125 ppm [2] | inhibition of growth at 25 ppm [3] | inhibition of growth at 25 ppm [4] | inhibition of growth at 25 ppm [6]

COC(=O)N(Cc1ccc(C)cc1C)NC(=O)c1cc(Cl)nnc1Oc1ccc2c(c1)CCC2 [b-79]
≥ 75%: pest or weed control at 125 ppm [2] | inhibition of growth at 25 ppm [3] | inhibition of growth at 25 ppm [4] | pest or weed control at 125 ppm [5] | inhibition of growth at 25 ppm [6]

COC(=O)N(Cc1ccc(OC)cc1OC)NC(=O)c1cc(C)ncc1Oc1cccc(C2CC2)c1F [b-85]
≥ 75%: pest or weed control at 125 ppm [1] | pest or weed control at 125 ppm [2] | inhibition of growth at 25 ppm [4] | pest or weed control at 25 ppm [5] | pest or weed control at 125 ppm [5] | inhibition of growth at 25 ppm [6]

COC(=O)N(Cc1ccc(OC)cc1OC)NC(=O)c1nc(C)ncc1Oc1cccc(C2CC2)c1F [b-86]
≥ 75%: pest or weed control at 125 ppm [1] | pest or weed control at 125 ppm [2] | inhibition of growth at 25 ppm [4] | pest or weed control at 25 ppm [5] | pest or weed control at 125 ppm [5] | inhibition of growth at 25 ppm [6]

COC(=O)N(Cc1ccc(OC)cc1)NC(=O)c1cc(C)nnc1Oc1cccc(C2CC2)c1F [b-100]
≥ 75%: pest or weed control at 125 ppm [1] | pest or weed control at 125 ppm [2] | inhibition of growth at 25 ppm [3] | inhibition of growth at 25 ppm [4] | inhibition of growth at 25 ppm [6]

COC(=O)N(Cc1ccccc1)NC(=O)c1cc(C)nnc1Oc1cccc(C2CC2)c1F [b-102]
≥ 75%: pest or weed control at 125 ppm [1] | pest or weed control at 125 ppm [2] | inhibition of growth at 25 ppm [3] | inhibition of growth at 25 ppm [4] | inhibition of growth at 25 ppm [6]

COC(=O)N(Cc1ccc(OC)cc1C)NC(=O)c1cc(C)ncc1Oc1cccc(C2CC2)c1F [b-104]
≥ 75%: pest or weed control at 125 ppm [1] | pest or weed control at 125 ppm [2] | inhibition of growth at 25 ppm [3] | inhibition of growth at 25 ppm [4] | pest or weed control at 25 ppm [5] | pest or weed control at 125 ppm [5]

COC(=O)N(Cc1ccc2c(c1)OCO2)NC(=O)c1cc(C)nnc1Oc1cccc(C2CC2)c1F [b-110]
≥ 75%: pest or weed control at 125 ppm [1] | pest or weed control at 125 ppm [2] | inhibition of growth at 25 ppm [3] | inhibition of growth at 25 ppm [4] | inhibition of growth at 25 ppm [6]

COC(=O)N(Cc1ccc(C)cc1C)NC(=O)c1cc(C)nnc1Oc1cccc(OC)c1 [b-123]
≥ 75%: pest or weed control at 125 ppm [1] | pest or weed control at 125 ppm [2] | inhibition of growth at 25 ppm [3] | inhibition of growth at 25 ppm [4] | inhibition of growth at 25 ppm [6]

COC(=O)N(Cc1ccc(C)cc1C)NC(=O)c1cc(C)nnc1Oc1cc(C)cc(F)c1 [b-144]
≥ 75%: pest or weed control at 125 ppm [2] | inhibition of growth at 25 ppm [3] | inhibition of growth at 25 ppm [4] | inhibition of growth at 25 ppm [6]

COC(=O)N(Cc1ccc(-c2ccc(F)cc2)cc1)NC(=O)c1cc(C)nnc1Oc1cccc(C2CC2)c1F [b-164]
≥ 75%: pest or weed control at 125 ppm [2] | inhibition of growth at 25 ppm [3] | inhibition of growth at 25 ppm [4] | inhibition of growth at 25 ppm [6]

COC(=O)N(Cc1ccc(Oc2ccccc2)cc1)NC(=O)c1cc(C)nnc1Oc1cccc(C2CC2)c1F [b-165]
≥ 75%: pest or weed control at 125 ppm [2] | inhibition of growth at 25 ppm [3] | inhibition of growth at 25 ppm [4] | inhibition of growth at 25 ppm [6]

COC(=O)N(Cc1ccc(-n2cccn2)cc1)NC(=O)c1cc(C)nnc1Oc1cccc(C2CC2)c1F [b-172]
≥ 75%: pest or weed control at 125 ppm [2] | inhibition of growth at 25 ppm [3] | inhibition of growth at 25 ppm [4] | inhibition of growth at 25 ppm [6]

COC(=O)N(Cc1ccc2ncsc2c1)NC(=O)c1cc(C)nnc1Oc1cccc(C2CC2)c1F [b-173]
≥ 75%: pest or weed control at 125 ppm [2] | inhibition of growth at 25 ppm [3] | inhibition of growth at 25 ppm [6]

CSC(=S)N(Cc1ccc(C)cc1C)NC(=O)c1cc(C)nnc1Oc1cccc(C2CC2)c1F [b-174]
≥ 75%: pest or weed control at 125 ppm [2] | inhibition of growth at 25 ppm [3] | inhibition of growth at 25 ppm [6]

COC(=O)N(Cc1ccc(C)cc1C)NC(=O)c1cc(C)nnc1Oc1cccc(F)c1Cl [b-180]
≥ 75%: pest or weed control at 125 ppm [1] | pest or weed control at 125 ppm [2] | inhibition of growth at 25 ppm [4]

COC(=O)N(Cc1ccc(C)cc1C)NC(=O)c1cc(-n2cccn2)ncc1Oc1cccc(C2CC2)c1F [b-186]
≥ 75%: pest or weed control at 125 ppm [2] | inhibition of growth at 25 ppm [3] | inhibition of growth at 25 ppm [4] | pest or weed control at 25 ppm [5] | pest or weed control at 125 ppm [5] | inhibition of growth at 25 ppm [6]
